Literature values, collected in patent US11878005B2, “Formulations of deferasirox and methods of making the same” (AustinPx, LLC, priority 2015, dated 2024).

Key:
[1] = not given; remark: listed apart in the source

- food effect on exposure (iron overload patients, administered with a high fat meal): two-fold higher exposure
- total DFX dose recovered in the feces as unchanged drug (steady state (7-day dosing)): 84%
- reported water solubility ([1]; 25° C.): 400 µg/mL
- pH dependent solubility ([1]; acidic media): insoluble in acidic media
SMILES: O=C(O)c1ccc(-n2nc(-c3ccccc3O)nc2-c2ccccc2O)cc1 [DFX, Deferasirox]
